Laboratory results taken from patent US5723576A, “Thrombin inhibitors, the preparation thereof and the use thereof for therapeutical, prophylactic and diagnostic applications” (Development Biotechnological Processes S.N.C., priority 1993, dated 1998).
Like-named read-outs stand apart in the source and are kept apart here. Square brackets hold non-standard residues; d marks the D form. Peptide text beside a SMILES is read from it. 2Nal = N[C@@H](Cc1ccc2ccccc2c1)C(=O)O; hPhe = N[C@@H](CCc1ccccc1)C(=O)O; Cha = N[C@@H](CC1CCCCC1)C(=O)O; Chg = N[C@H](C(=O)O)C1CCCCC1; Aib = CC(C)(N)C(=O)O; βAla = NCCC(=O)O

Key:
[1] = In vitro resistance of the peptides to hydrolysis by plasma proteases; type: in vitro ADME; conditions: human plasma from healthy donors, 37° C.; read-out: τp: halving time of the inhibitor concentration in human plasma
Procedure: (§1) The resistance of the compounds of the present invention versus plasmatic proteases was evaluated in vitro in two groups of tests. In the first one, the resistance to proteolysis of thrombin itself was tested incubating the claimed compounds in the presence of thrombin and analysing the mixture at different times. In the second one, the claimed compounds were incubated in plasma of healthy volunteers and, after filtration of the plasma proteins, the supernatants were analyzed by HPLC and capillary electrophoresis.
In vitro determination of the peptides resistance to hydrolysis by plasma proteases.
[…] of hirunorm-I […], hirunorm-II (569 μg), hirunorm-III (585 μg), were separately incubated with 1600 μL of human plasma from heal thy donors at 37° C. for different times. 50 μL aliquots were added with 200 μL of 100 mN H3 PO4. The supernatants were analyzed at pre-set times by HPLC on a Vydac C18 0.46×25 cm column with a straight acetonitrile gradient containing 0.1% (v/v) of trifluoroacetic acid (phase B) against 0.1% (v/v) aqueous trifluoroacetic acid (phase A), from 5 to 70% in B in 35 min at a flow rate of 1 mL/min, with detection at 210 nm. The eluted peaks were collected and analyzed by capillary electrophoresis on a […]×60 cm fused silica Waters capillary, fitted with a UV detector at 214 nm. The analyses were carried out at a constant voltage of 18 KV, using a buffer 100 mN acid phosphoric for 25 min. The eluted peaks were then analyzed by means of Fab mass spectrometry.
(§2) ^.sctn. The factors tt and tp are the halving times (min) o
(§3) the inhibitor concentrations in the presence of equimolar amounts of
(§4) thrombin, respectively both alone and in human plasma.

human α-thrombin = tested on: T1, human α-thrombin; assay: In vitro resistance of the peptides to enzyme hydrolysis by thrombin; type: in vitro ADME; conditions: isolated enzyme thrombin; human a-thrombin, Tris/HCl buffer pH 7.8, 37° C.; read-out: τt: halving time of the inhibitor concentration in the presence of thrombin alone
T1 construct: human a-thrombin
Procedure: as §1
(§5) In vitro determination of the peptide resistance to enzyme hydrolysis by thrombin.
(§6) 97.2 nmol of hirunorm-I (286 μg), hirunorm-II (285 μg), hirunorm-III (293 μg), were incubated separately with 0.972 nmol of human a-thrombin (35 μg, 3110 Units NIH/mg) in 800 μL of 0.05M Tris/HCl buffer, 0.1M NaCl at pH-7.8 and a temperature of 37° C. 50 μL Aliquots were diluted with 200 μL of 100 mN H3 PO4 and analyzed at pre-set times by capillary electrophoresis on a […] silica Waters capillary, using a Waters Quanta 4000 apparatus fitted with an UV detection at 214 nm. The analyses were carried out at a constant voltage of 18 KV, using a 100 mN phosphoric acid buffer for 25 min. The eluted peaks were collected and analyzed by Fab mass spectrometry.
as §2, §3, §4

thrombin [2] = molecular target: T2, thrombin (Homo sapiens, UniProt P00734); assay: Inhibition of thrombin-mediated hydrolysis of Chromozym TH (Ki); type: biochemical; conditions: read-out: Ki: hydrolysis inhibition constant of a chromogenic substrate
Procedure: Moreover, the efficacy of the products of the present invention was also evaluated determining the inhibition constants Ki versus thrombin, using chromogenic substrates.
The inhibition of the hydrolysis, mediated by thrombin, of Chromozym TH by the peptides of the present invention was evaluated according to the literature (Stone, S. R., Hofsteenge, J., Biochemistry, 25, 4622, (1986).
°The hydrolysis inhibition constants of a chromogenic substrate ar

thrombin [3] = molecular target: T2, thrombin; conditions: non covalent 1:1 complex; read-out: Ki of hirudin binding to thrombin; cited from earlier work
human a-thrombin = molecular target: T3, human a-thrombin (Homo sapiens, UniProt P00734); assay: In vitro resistance of the peptides to enzyme hydrolysis by thrombin; type: in vitro ADME; conditions: Tris/HCl buffer pH 7.8, 37° C.
T3 construct: human a-thrombin
Procedure: as §1, §5, §6, §2, §3, §4

Compound	half-life at 1.21 µM [1] [h]	half-life at 121.5 µM (human α-thrombin) [h]	Ki (thrombin [2]) [nM]	Ki (thrombin [3]) [nM]	τt: halving time of the inhibitor concentration in the presence of thrombin alone (human a-thrombin) [min]
CC[C@H](C)[C@H](N)C(=O)N[C@@H](CCCNC(=N)N)C(=O)N[C@@H](Cc1ccc(O)cc1)C(=O)N[C@H](C(=O)N[C@@H](CC(=O)O)C(=O)N[C@H](C)C(=O)NCCC(=O)NCCC(=O)N1CCC[C@H]1C(=O)N[C@@H](CCC(=O)O)C(=O)N[C@@H](CC(N)=O)C(=O)N[C@@H](Cc1c[nH]cn1)C(=O)N[C@@H](CC(N)=O)C(=O)N[C@@H](CC(N)=O)C(=O)NCC(=O)N[C@@H](CC(=O)O)C(=O)N[C@@H](Cc1ccccc1)C(=O)N[C@@H](CCC(=O)O)C(=O)N[C@@H](CCC(=O)O)C(=O)N[C@H](C(=O)N1CCC[C@H]1C(=O)NC(C)(C)C(=O)NC(C)(C)C(=O)N[C@@H](Cc1ccc(O)cc1)C(=O)N[C@@H](CC(C)C)C(=O)N[C@@H](CCC(=O)O)C(=O)O)[C@@H](C)CC)[C@@H](C)O [Hirunorm-I] (HELM PEPTIDE1{I.R.Y.T.D.[dA].[bAla].[bAla].P.E.N.H.N.N.G.D.F.E.E.I.P.[Aib].[Aib].Y.L.E}$$$$V2.0)	5	> 8	97		
Hirudin				0.063	
CC[C@H](C)[C@H](NC(=O)[C@H](CCC(=O)O)NC(=O)[C@H](CCC(=O)O)NC(=O)[C@H](Cc1ccc(O)cc1)NC(=O)[C@H](CC(=O)O)NC(=O)CNC(=O)CNC(=O)[C@H](CCc1ccccc1)NC(=O)[C@H](Cc1c[nH]cn1)NC(=O)[C@H](CO)NC(=O)[C@H](CCC(=O)O)NC(=O)[C@@H]1CCCN1C(=O)CCNC(=O)CNC(=O)[C@@H](C)NC(=O)[C@H](CC(=O)O)NC(=O)[C@@H](NC(=O)[C@H](Cc1ccc2ccccc2c1)NC(=O)[C@H](CCCNC(=N)N)NC(=O)[C@@H](N)C1CCCCC1)[C@@H](C)O)C(=O)N1CCC[C@H]1C(=O)NC(C)(C)C(=O)NC(C)(C)C(=O)N[C@@H](Cc1ccc(O)cc1)C(=O)N[C@@H](CC1CCCCC1)C(=O)N[C@H](CCC(=O)O)C(=O)O [Hirunorm-IV] (H-[Chg]R[2Nal]TD[dA]G[βAla]PESH[hPhe]GGDYEEIP[Aib][Aib]Y[Cha][dE]-OH)			2.6		
CC[C@H](C)[C@H](NC(=O)[C@H](CCC(=O)O)NC(=O)[C@H](CCC(=O)O)NC(=O)[C@H](Cc1ccc(O)cc1)NC(=O)[C@H](CC(=O)O)NC(=O)CNC(=O)CNC(=O)[C@H](CCc1ccccc1)NC(=O)[C@H](Cc1c[nH]cn1)NC(=O)[C@H](CO)NC(=O)[C@H](CCC(=O)O)NC(=O)[C@@H]1CCCN1C(=O)CCNC(=O)CNC(=O)[C@@H](C)NC(=O)[C@H](CC(=O)O)NC(=O)[C@@H](NC(=O)[C@H](Cc1ccc2ccccc2c1)NC(=O)[C@@H](NC(=O)[C@@H](N)C1CCCCC1)C(C)C)[C@@H](C)O)C(=O)N1CCC[C@H]1C(=O)NC(C)(C)C(=O)NC(C)(C)C(=O)N[C@@H](Cc1ccc(O)cc1)C(=O)N[C@@H](CC1CCCCC1)C(=O)N[C@H](CCC(=O)O)C(=O)O [Hirunorm-V] (H-[Chg]V[2Nal]TD[dA]G[βAla]PESH[hPhe]GGDYEEIP[Aib][Aib]Y[Cha][dE]-OH)			1		
CC[C@H](C)[C@H](N)C(=O)N[C@@H](CCCNC(=N)N)C(=O)N[C@@H](Cc1ccccc1)C(=O)N[C@H](C(=O)N[C@@H](CC(=O)O)C(=O)N[C@H](C)C(=O)NCC(=O)NCCC(=O)N1CCC[C@H]1C(=O)N[C@@H](CCC(=O)O)C(=O)N[C@@H](CO)C(=O)N[C@@H](Cc1c[nH]cn1)C(=O)N[C@@H](CCc1ccccc1)C(=O)NCC(=O)NCC(=O)N[C@@H](CC(=O)O)C(=O)N[C@@H](Cc1ccc(O)cc1)C(=O)N[C@@H](CCC(=O)O)C(=O)N[C@@H](CCC(=O)O)C(=O)N[C@H](C(=O)N1CCC[C@H]1C(=O)NC(C)(C)C(=O)NC(C)(C)C(=O)N[C@@H](Cc1ccc(OP(=O)(O)O)cc1)C(=O)N[C@@H](CC1CCCCC1)C(=O)N[C@H](CCC(=O)O)C(=O)O)[C@@H](C)CC)[C@@H](C)O [Hirunorm-III] (HELM PEPTIDE1{I.R.F.T.D.[dA].G.[bAla].P.E.S.H.[O=C([C@H](CCc1ccccc1)N[*:1])[*:2]].G.G.D.Y.E.E.I.P.[Aib].[Aib].[O=C([C@H](Cc1ccc(OP(=O)(O)O)cc1)N[*:1])[*:2]].[Cha].[dE]}$$$$V2.0)	8		1		> 480
CC[C@H](C)[C@H](N)C(=O)N[C@@H](CCCNC(=N)N)C(=O)N[C@@H](Cc1ccccc1)C(=O)N[C@H](C(=O)N[C@@H](CC(=O)O)C(=O)N[C@H](C)C(=O)NCC(=O)NCCC(=O)N1CCC[C@H]1C(=O)N[C@@H](CCC(=O)O)C(=O)N[C@@H](CO)C(=O)N[C@@H](Cc1c[nH]cn1)C(=O)N[C@@H](CCc1ccccc1)C(=O)NCC(=O)NCC(=O)N[C@@H](CC(=O)O)C(=O)N[C@@H](Cc1ccc(O)cc1)C(=O)N[C@@H](CCC(=O)O)C(=O)N[C@@H](CCC(=O)O)C(=O)N[C@H](C(=O)N1CCC[C@H]1C(=O)NC(C)(C)C(=O)NC(C)(C)C(=O)N[C@@H](Cc1ccc(O)cc1)C(=O)N[C@@H](CC1CCCCC1)C(=O)N[C@H](CCC(=O)O)C(=O)O)[C@@H](C)CC)[C@@H](C)O [Hirunorm-II] (HELM PEPTIDE1{I.R.F.T.D.[dA].G.[bAla].P.E.S.H.[O=C([C@H](CCc1ccccc1)N[*:1])[*:2]].G.G.D.Y.E.E.I.P.[Aib].[Aib].Y.[Cha].[dE]}$$$$V2.0)	8		2.6		> 480
